Test results taken from patent publication US10111862B2, “Traps in the treatment of macular degeneration” (Aldeyra Therapeutics, Inc., priority 2013, dated 2018).

Assay: RAL depletion by compounds in rod outer segment preparation
Type: biochemical, bovine
Details: rod outer segment preparation containing 64 μM opsin at 37° C.; for Kapp, apparent equilibrium constant of RAL depletion / kapp, apparent second order rate constant of RAL depletion: nominal starting drug 1.00 mM, RAL 60 μM; for ΔGapp, apparent free energy change of RAL depletion: ΔGapp=−RT ln Kapp
Method: The parameters associated with the RAL depletion chemistry are as follows:
[drawing 47] kapp: apparent second order rate constant of RAL depletion by drug. Kapp: apparent equilibrium constant of RAL depletion by drug.
[formula] ΔGapp: apparent free energy change of RAL depletion by drug. ΔGapp=−RT ln Kapp (2) Kring: equilibrium constant of tautomerism from imine to oxaminal (ring closed).
Frozen bovine rod outer segment preparation (64 μM of opsin) is thawed and vortexed thoroughly. A 200 μL aliquot of this sample is transferred into a 0.5 mL Eppendorf tube. To it is added 10 μL of 20 mM drug stock solution in EtOH, and the mixture is vortexed for 1 min. The tube is incubated at 37° C. in a Thermo Scientific microprocessor controlled 280 series water bath for 3 min before 5 μL freshly prepared 2.4 mM RAL solution in EtOH is added (the nominal starting concentrations of drug and RAL are 1.00 mM and 60 μM, respectively). After vortexing for 1 min, the tube is incubated at 37° C. over time. Aliquots of the reaction mixture (25 μL each) are taken periodically, and added onto 10 mg of solid NaBH4 in a 0.5 mL Eppendorf tube. To the latter is added carefully 400 μL of 2:1 (v/v) EtOH/HOAc. The reduction mixture is vortexed for 1 min and centrifuged. The supernatant is separated, and analyzed by HPLC using a standard HPLC method:
Solvent A: 0.05% HCOOH/95% HPLC grade water/5% HPLC grade MeCN
Solvent B: 0.05% HCOOH HPLC grade MeCN
Detector wavelengths: 329 and 250 nm
Reference wavelength: 400 nm
The RAL depletion percentages are calculated by normalization of ROL and Re-RAL-drug peak integrals, which are then plotted against reaction time. Least squares fit of the RAL depletion plot according to pseudo-first order kinetics yields observed first order rate constant kobsd, and kapp is calculated according to kobsd=kapp[drug]. Kapp is calculated from the equilibrium concentrations of free RAL, free drug and RAL-drug according to equation (1). ΔGapp was calculated according equation (2).

Structure (SMILES) | Kapp, apparent equilibrium constant of RAL depletion | kapp, apparent second order rate constant of RAL depletion | ΔGapp, apparent free energy change of RAL depletion
Cc1ccc(-c2nc3cc(N)c(C(C)(C)O)c(Cl)c3o2)cc1 [Compound 2, 2-(5-amino-7-chloro-2-p-tolylbenzoxazol-6-yl)propan-2-ol] | 2.29×10^6 | 24,700 M^−1·h^−1 | -37.7 kJ/mol
CC(C)(O)c1c(N)cc2nc(-c3ccccc3)oc2c1Cl [Compound 3, 2-(5-amino-7-chloro-2-phenylbenzoxazol-6-yl)propan-2-ol] | 7.14×10^6 | 21,600 M^−1·h^−1 | -40.6 kJ/mol
CC(C)(O)c1c(N)cc2onc(C3CC3)c2c1Cl [Compound 4, 2-(6-amino-4-chloro-3-cyclopropylbenzisoxazol-5-yl)propan-2-ol] | >2 × 10^7 | 31,700 M^−1·h^−1 | <-41.8 kJ/mol
CC(C)(O)c1c(N)cc2c(C3CC3)noc2c1Cl [Compound 5, 2-(5-amino-7-chloro-3-cyclopropylbenzisoxazol-6-yl)propan-2-ol] | >2 × 10^7 | 35,300 M^−1·h^−1 | <-41.8 kJ/mol
CC(C)(O)c1c(N)cc(Cl)c2c(C3CC3)noc12 [Compound 6, 2-(6-amino-4-chloro-3-cyclopropylbenzisoxazol-7-yl)propan-2-ol] | 3.35×10^6 | 12,700 M^−1·h^−1 | -38.5 kJ/mol
CC(C)(O)c1nc2ccc(Cl)cc2cc1N [reference compound] | 1.55 × 10^5 | 3,570 M^−1·h^−1 | -31 kJ/mol
CC(C)(O)c1cc2oc(-c3ccccc3)nc2cc1N [reference compound] | 1.25 × 10^6 | 25,500 M^−1·h^−1 | -36 kJ/mol
